Active and inactive are the calls of the source. The calls are words filed in the database; no cut-off is given here.
Tests used:
[1] = organism: Rattus norvegicus; assay: Inhibition of lipid peroxidation in Sprague-Dawley rat heart mitochondria assessed as inhibition of FeSO4-induced oxygen consumption up to 0.3 mM relative to control; type: functional; parameters: scale not given: the % may be the effect or the level left
[2] = organism: Rattus norvegicus; assay: Inhibition of lipid peroxidation in Sprague-Dawley rat heart mitochondria assessed as inhibition of FeSO4-induced malondialdehyde formation up to 0.3 mM relative to control; type: functional; parameters: scale not given: the % may be the effect or the level left
[3] = Inhibition of lipid peroxidation in Sprague-Dawley rat heart mitochondria assessed as inhibition of FeSO4-induced malondialdehyde formation; type: functional
[4] = Inhibition of lipid peroxidation in Sprague-Dawley rat heart mitochondria assessed as inhibition of FeSO4-induced oxygen consumption; type: functional
[5] = test system: Radical scavenging activity; assay: Antioxidant activity assessed as DPPH radical scavenging activity after 90 mins; type: functional
[6] = test system: PBMC; assay: Inhibition of thymidine uptake in phytohemagglutininin-stimulated human PBMC; type: functional, cell-based
[7] = organism: Rattus norvegicus; assay: Antioxidant activity in Sprague-Dawley rat heart mitochondria assessed as inhibition of conjugated diene formation at 1 to 300 uM; type: functional

Row | SMILES | Activity [1] | Activity [2] | IC50 [3] | IC50 [4] | further results
1 | Nc1ccc2c(c1)C(=O)c1ccccc1C2=O | < 50% | < 50% | – | – | –
2 | COc1cc(O)c2c(c1)C(=O)c1cc(C)cc(O)c1C2=O | < 50% | < 50% | – | – | –
3 | Cc1cc(O)c2c(c1)C(=O)c1cccc(O)c1C2=O | < 50% | < 50% | – | – | –
4 | O=C(O[C@@H]1Cc2c(O)cc(O)cc2O[C@@H]1c1ccc(O)c(O)c1)c1cc(O)c(O)c(O)c1 [EPICATECHIN GALLATE] | – | – | 5.4 µM | 8.4 µM | –
5 | O=C(O[C@@H]1Cc2c(O)cc(O)cc2O[C@H]1c1cc(O)c(O)c(O)c1)c1cc(O)c(O)c(O)c1 [GALLOCATECHIN GALLATE] | – | – | 8.6 µM | 14 µM | –
6 | O=C(O[C@@H]1Cc2c(O)cc(O)cc2O[C@@H]1c1cc(O)c(O)c(O)c1)c1cc(O)c(O)c(O)c1 [EPIGALOCATECHIN GALLATE] | – | – | 9.4 µM | 12.2 µM | –
7 | O=C1c2cccc(O)c2C(=O)c2cccc(O)c21 | < 50% | < 50% | – | – | –
8 | Oc1cc(O)c2c(c1)O[C@H](c1ccc(O)c(O)c1)[C@H](O)[C@H]2c1c(O)cc(O)c2c1O[C@H](c1ccc(O)c(O)c1)[C@H](O)C2 [PROCYANIDIN B2] | – | – | 9 µM | 11 µM | –
9 | COc1cc(O[C@@H]2O[C@H](CO)[C@@H](O)[C@H](O)[C@H]2O)c2c(c1)C(=O)c1cc(C)cc(O)c1C2=O | < 50% | < 50% | – | – | –
10 | O=C1OC[C@H]2OC(O)[C@@H]3OC(=O)c4cc(O)c(O)c(O)c4-c4c(cc(O)c(O)c4O)C(=O)O[C@H]3[C@@H]2OC(=O)c2cc(O)c(O)c(O)c2-c2c1cc(O)c(O)c2O (stereo partly drawn) [PEDUNCULAGIN] | – | – | 12 µM | 7.8 µM | –
11 | Cc1c(C)c2c(c(C)c1O)CC[C@@](C)(CCC[C@H](C)CCC[C@H](C)CCCC(C)C)O2 [ALPHA-TOCOPHEROL] | – | – | 94.7 µM | 102 µM | Activity [5]: Active
12 | O=C1c2ccccc2C(=O)c2c1ccc(O)c2O [ATHRAQUINONES A] | – | – | 49.5 µM | 63.9 µM | Activity [5]: Active
13 | Cc1cc(O)c2c(c1)C(=O)c1cc(O)cc(O[C@@H]3O[C@H](CO)[C@@H](O)[C@H](O)[C@H]3O)c1C2=O | < 50% | < 50% | – | – | –
14 | CCc1ccc2c(c1)C(=O)c1ccccc1C2=O | < 50% | < 50% | – | – | –
15 | O=C1c2ccc(O)cc2C(=O)c2ccc(O)cc21 | < 50% | < 50% | – | – | Activity [6]: Active
16 | Nc1cccc2c1C(=O)c1ccccc1C2=O | < 50% | < 50% | – | – | –
17 | O=C1c2ccccc2C(=O)c2ccccc21 | < 50% | < 50% | – | – | –
18 | Cc1cc(O)c2c(c1)C(=O)c1cc(O)cc(O)c1C2=O [EMODIN] | – | – | 16.8 µM | 12.5 µM | Activity [5]: inactive; Activity [7]: inactive
19 | O=C(O)c1ccc2c(c1)C(=O)c1ccccc1C2=O | < 50% | < 50% | – | – | –

— ChEMBL document CHEMBL1159287, “Effect of anthraquinone derivatives on lipid peroxidation in rat heart mitochondria: structure-activity relationship” (J Nat Prod, 1995)
